Data as given in DBAASP.
Values after ≈ are worked out from the molar mass of the structure shown. Each block holds one molecule with its values, some of them ahead of it.

Legend:
Assay in all cases: ≥ marks a high value that may be exact or a test limit, other limits are often not marked, values filed in µg/mL are converted to µM
[1] = test system: Staphylococcus aureus NCTC 10788
[2] = test system: Escherichia coli ATCC 25726
[3] = test system: Staphylococcus aureus ATCC 25923
[4] = test system: Candida albicans ATCC 90028
Klebsiella pneumoniae = test system: Klebsiella pneumoniae
Salmonella typhimurium = test system: Salmonella typhimurium
Pseudomonas aeruginosa = test system: Pseudomonas aeruginosa
[5] = test system: Escherichia coli DH5alpha
[6] = test system: Micrococcus luteus ATCC 9341
[7] = test system: Staphylococcus aureus ATCC 33591
[8] = test system: Escherichia coli ATCC 25922
[9] = test system: Escherichia coli KCTC 1682
[10] = test system: Pseudomonas aeruginosa KCTC 1637
[11] = test system: Salmonella typhimurium KCTC 1926
[12] = test system: Bacillus subtilis KCTC 3068
[13] = test system: Staphylococcus epidermidis KCTC 1917
[14] = test system: Staphylococcus aureus KCTC 1621

Compound: CC(C)C[C@H](NC(=O)[C@H](CC(C)C)NC(=O)CNC(=O)[C@H](C)NC(=O)[C@H](CC(C)C)NC(=O)[C@H](CC(C)C)NC(=O)CNC(=O)[C@@H]1CCCN1C(=O)[C@H](CC(C)C)NC(=O)[C@@H](N)Cc1ccccc1)C(N)=O [FLPGLLAGLL]
MIC [1]: ≥ 60 µM

Compound: CC[C@H](C)[C@H](NC(=O)[C@H](CC(C)C)NC(=O)[C@H](Cc1cnc[nH]1)NC(=O)[C@@H]1CCCN1C(=O)[C@@H](NC(=O)[C@@H](NC(=O)[C@H](CCCCN)NC(=O)[C@H](C)NC(=O)[C@@H](NC(=O)CNC(=O)[C@H](CCCCN)NC(=O)[C@H](CC(C)C)NC(=O)CNC(=O)[C@H](CC(C)C)NC(=O)[C@H](CCCCN)NC(=O)[C@H](CC(C)C)NC(=O)[C@H](CC(C)C)NC(=O)[C@@H]1CCCN1C(=O)CNC(=O)[C@H](CC(C)C)NC(=O)[C@H](Cc1ccccc1)NC(=O)CN)C(C)C)C(C)C)[C@@H](C)CC)C(=O)N1CCC[C@H]1C(=O)N[C@@H](CO)C(=O)N[C@@H](CCCN=C(N)N)C(=O)N[C@@H](CCC(N)=O)C(=O)N[C@@H](CCC(N)=O)C(=O)O [GFLGPLLKLGLKGVAKVIPHLIPSRQQ]
MIC [2]: ≥ 40 µM | MIC [3]: 2.5 µM (≈ 7.2 µg/mL)

Compound: CC[C@H](C)[C@H](NC(=O)[C@@H](NC(=O)[C@@H](NC(=O)CNC(=O)[C@H](C)NC(=O)[C@@H](NC(=O)[C@H](CC(N)=O)NC(=O)[C@@H](NC(=O)[C@H](C)NC(=O)[C@H](CC(C)C)NC(=O)[C@H](CC(N)=O)NC(=O)[C@H](CCCCN)NC(=O)[C@H](Cc1ccccc1)NC(=O)[C@@H](NC(=O)[C@H](CO)NC(=O)[C@H](CC(C)C)NC(=O)[C@H](CC(C)C)NC(=O)CN)[C@@H](C)O)[C@@H](C)O)C(C)C)[C@@H](C)O)C(C)C)C(=O)N[C@@H](CC(=O)O)C(=O)N[C@H](C(=O)N[C@@H](CC(C)C)C(=O)N[C@@H](CCCCN)C(=O)N[C@H]1CSSC[C@@H](C(=O)N[C@@H](CCCN=C(N)N)C(=O)N[C@H](C(=O)O)[C@@H](C)O)NC(=O)CNC(=O)CNC(=O)[C@H]([C@@H](C)O)NC(=O)[C@H](C(C)C)NC(=O)[C@H](CCCCN)NC1=O)[C@@H](C)O [GLLSTFKNLATNVAGTVIDTLKCKVTGGCRT]
MIC [2]: ≥ 80 µM | MIC [4]: ≥ 80 µM | MIC [3]: > 80 µM

Compound: CC[C@H](C)[C@H](N)C(=O)N[C@@H](CC(C)C)C(=O)N[C@@H](C)C(=O)N[C@@H](Cc1c[nH]c2ccccc12)C(=O)N[C@@H](CCCCN)C(=O)N[C@@H](Cc1c[nH]c2ccccc12)C(=O)N[C@@H](C)C(=O)N[C@@H](Cc1c[nH]c2ccccc12)C(=O)N[C@@H](Cc1c[nH]c2ccccc12)C(=O)N1CCC[C@H]1C(=O)N[C@@H](Cc1c[nH]c2ccccc12)C(=O)N[C@@H](CCCN=C(N)N)C(=O)N[C@@H](CCCN=C(N)N)C(N)=O [ILAWKWAWWPWRR]
MIC (Klebsiella pneumoniae): 25 µM (≈ 46.4 µg/mL) | MIC (Salmonella typhimurium): 25 µM (≈ 46.4 µg/mL) | MIC (Pseudomonas aeruginosa): 100 µM (≈ 185 µg/mL) | MIC [5]: 15 µM (≈ 27.8 µg/mL)

Compound: CC[C@H](C)[C@H](N)C(=O)N[C@@H](CC(C)C)C(=O)N[C@@H](C)C(=O)N[C@@H](Cc1c[nH]c2ccccc12)C(=O)N[C@@H](CCCCN)C(=O)N[C@@H](Cc1c[nH]c2ccccc12)C(=O)N1CCC[C@H]1C(=O)N[C@@H](Cc1c[nH]c2ccccc12)C(=O)N[C@@H](Cc1c[nH]c2ccccc12)C(=O)N[C@@H](C)C(=O)N[C@@H](Cc1c[nH]c2ccccc12)C(=O)N[C@@H](CCCN=C(N)N)C(=O)N[C@@H](CCCN=C(N)N)C(N)=O [ILAWKWPWWAWRR]
MIC (Klebsiella pneumoniae): 50 µM (≈ 92.7 µg/mL) | MIC (Salmonella typhimurium): 25 µM (≈ 46.4 µg/mL) | MIC (Pseudomonas aeruginosa): 100 µM (≈ 185 µg/mL) | MIC [5]: 25 µM (≈ 46.4 µg/mL)

Compound: CC[C@H](C)[C@H](N)C(=O)N[C@@H](CC(C)C)C(=O)N1CCC[C@H]1C(=O)N[C@H](C(=O)N[C@@H](CCCCN)C(=O)N[C@H](C(=O)N1CCC[C@H]1C(=O)N[C@H](C(=O)N[C@H](C(=O)N1CCC[C@H]1C(=O)N[C@H](C(=O)N[C@@H](CCCN=C(N)N)C(=O)N[C@@H](CCCN=C(N)N)C(N)=O)C(C)C)C(C)C)C(C)C)C(C)C)C(C)C [ILPVKVPVVPVRR]
MIC [6]: ≥ 100 µM

The next lines start with the values.

MIC [6]: 0.8 µM (≈ 1.48 µg/mL)
Compound: CC[C@H](C)[C@H](N)C(=O)N[C@@H](CC(C)C)C(=O)N1CCC[C@H]1C(=O)N[C@@H](Cc1c[nH]c2ccccc12)C(=O)N[C@@H](C)C(=O)N[C@@H](Cc1c[nH]c2ccccc12)C(=O)N1CCC[C@H]1C(=O)N[C@@H](Cc1c[nH]c2ccccc12)C(=O)N[C@@H](Cc1c[nH]c2ccccc12)C(=O)N1CCC[C@H]1C(=O)N[C@@H](Cc1c[nH]c2ccccc12)C(=O)N[C@@H](CCCN=C(N)N)C(=O)N[C@@H](CCCN=C(N)N)C(N)=O [ILPWAWPWWPWRR]

MIC [6]: 0.4 µM (≈ 0.774 µg/mL)
Compound: CC[C@H](C)[C@H](N)C(=O)N[C@@H](CC(C)C)C(=O)N1CCC[C@H]1C(=O)N[C@@H](Cc1c[nH]c2ccccc12)C(=O)N[C@@H](CCCN=C(N)N)C(=O)N[C@@H](Cc1c[nH]c2ccccc12)C(=O)N1CCC[C@H]1C(=O)N[C@@H](Cc1c[nH]c2ccccc12)C(=O)N[C@@H](Cc1c[nH]c2ccccc12)C(=O)N1CCC[C@H]1C(=O)N[C@@H](Cc1c[nH]c2ccccc12)C(=O)N[C@@H](CCCN=C(N)N)C(=O)N[C@@H](CCCN=C(N)N)C(N)=O [ILPWRWPWWPWRR]

MIC [2]: ≥ 80 µM | MIC [3]: 20 µM (≈ 49.4 µg/mL)
Compound: CC[C@H](C)[C@H](N)C(=O)N[C@H](C(=O)N[C@H](C(=O)N1CCC[C@H]1C(=O)N1CCC[C@H]1C(=O)N[C@H](C(=O)N[C@H](C(=O)N[C@@H](CCCCN)C(=O)N[C@@H](CC(=O)O)C(=O)N[C@H](C(=O)N[C@@H](CC(C)C)C(=O)N[C@@H](CCCCN)C(=O)N[C@@H](CCCCN)C(=O)N[C@@H](Cc1ccccc1)C(=O)N[C@H](C(=O)N[C@@H](CCCCN)C(=O)NCC(=O)N[C@@H](C)C(=O)N[C@H](C(=O)N[C@@H](CO)C(=O)NCC(=O)N[C@H](C(=O)N[C@@H](CCSC)C(N)=O)C(C)C)[C@@H](C)CC)[C@@H](C)CC)[C@@H](C)O)C(C)C)[C@@H](C)CC)[C@@H](C)CC)[C@@H](C)O [ITIPPIVKDTLKKFIKGAISGVM]

MIC [7]: ≥ 256 µM | MIC [8]: 128 µM (≈ 237 µg/mL)
Compound: CC[C@H](C)[C@H](NC(=O)[C@@H](N)CCCCN)C(=O)N[C@@H](Cc1c[nH]c2ccccc12)C(=O)N[C@@H](Cc1ccccc1)C(=O)N[C@@H](CCC(N)=O)C(=O)N[C@@H](CC(N)=O)C(=O)N[C@@H](CCCN=C(N)N)C(=O)N[C@@H](CCCN=C(N)N)C(=O)N[C@@H](CCSC)C(=O)N[C@@H](CCCCN)C(=O)N[C@@H](Cc1c[nH]c2ccccc12)C(=O)N[C@@H](CCCCN)C(=O)N[C@@H](CCCCN)C(N)=O [KIWFQNRRMKWKK]

MIC [9]: 2 µM (≈ 4.04 µg/mL) | MIC [10]: 4 µM (≈ 8.09 µg/mL) | MIC [11]: 2 µM (≈ 4.04 µg/mL) | MIC [12]: 2 µM (≈ 4.04 µg/mL) | MIC [13]: 2 µM (≈ 4.04 µg/mL) | MIC [14]: 2 µM (≈ 4.04 µg/mL)
Compound: C[C@@H](O)[C@H](NC(=O)[C@H](CCCCN)NC(=O)[C@H](Cc1c[nH]c2ccccc12)NC(=O)[C@H](Cc1c[nH]c2ccccc12)NC(=O)[C@@H](NC(=O)[C@H](CCCCN)NC(=O)[C@@H](N)CCCCN)[C@@H](C)O)C(=O)N[C@@H](Cc1c[nH]c2ccccc12)C(=O)N[C@@H](Cc1c[nH]c2ccccc12)C(=O)N[C@H](C(=O)N[C@@H](CCCCN)C(=O)N[C@@H](Cc1c[nH]c2ccccc12)C(=O)N[C@@H](CCCCN)C(=O)N[C@@H](CCCCN)C(=O)O)[C@@H](C)O [KKTWWKTWWTKWKK]

MIC [6]: 0.8 µM (≈ 1.34 µg/mL)
Compound: NCCCC[C@H](NC(=O)[C@H](Cc1c[nH]c2ccccc12)NC(=O)[C@@H]1CCCN1)C(=O)N[C@@H](Cc1c[nH]c2ccccc12)C(=O)N1CCC[C@H]1C(=O)N[C@@H](Cc1c[nH]c2ccccc12)C(=O)N[C@@H](Cc1c[nH]c2ccccc12)C(=O)N1CCC[C@H]1C(=O)N[C@@H](Cc1c[nH]c2ccccc12)C(=O)N[C@@H](CCCN=C(N)N)C(=O)N[C@@H](CCCN=C(N)N)C(N)=O [PWKWPWWPWRR]

MIC [9]: 16.6 µM (≈ 25 µg/mL) | MIC [10]: 4.15 µM (≈ 6.25 µg/mL) | MIC [11]: 4.15 µM (≈ 6.25 µg/mL) | MIC [12]: 8.3 µM (≈ 12.5 µg/mL) | MIC [13]: 8.3 µM (≈ 12.5 µg/mL) | MIC [14]: 8.3 µM (≈ 12.5 µg/mL)
Compound: CC[C@H](C)[C@H](NC(=O)[C@H](CCCN=C(N)N)NC(=O)[C@H](CC(C)C)NC(=O)[C@H](CC(C)C)NC(=O)[C@@H](N)CCCN=C(N)N)C(=O)N[C@H](C(=O)N[C@H](C(=O)N[C@H](C(=O)N[C@@H](CCCN=C(N)N)C(=O)N[C@H](C(=O)N[C@@H](CC(C)C)C(=O)N[C@@H](CCCN=C(N)N)C(N)=O)C(C)C)[C@@H](C)CC)C(C)C)C(C)C [RLLRIVVIRVLR]
